Measured values as given in patent US12344587B2, “Synthetic retinoids for use in RAR activation” (UNIVERSITY OF DURHAM, priority 2019, dated 2025).

How the values were obtained:
[1] = system: rat mixed primary neuronal/glial cultures; assay: Regulation of Alzheimer's disease related genes (qPCR); assay type: cell-based; conditions: 10 nM retinoid 24 hours after 1 μg/ml lipopolysaccharide 6 hours
Procedure: To examine the influence retinoids may have on the expression of genes involved in Alzheimer's disease, the expression of a group of Alzheimer's-related genes in rat mixed primary neuronal/glial cultures was assessed following retinoid treatment.
Approximately 300,000 rat neuronal/glial cells were treated first with 1 μg/ml lipopolysaccharide (Sigma-Aldrich) for 6 hours to induce inflammation. Following the induction of inflammation, cells were treated with 10 nM retinoids for 24 hours. […] Following treatment, RNA was extracted from the treated cells for qPCR analysis.
Total RNA was extracted using a Qiagen RNeasy mini kit (CAT # 74104, Qiagen) according to the manufacturer's protocol. Briefly, cell and brain tissue samples were homogenized in 350 μl and 1200 μl of RLT buffer mixed with β-ME (1 ml buffer: 10 μl β-ME ratio) respectively. Then, samples were centrifuged for 3 min at 13,000 rpm. The supernatant was first mixed with 70% ethanol at a 1:1 volume ratio (CAT # E7023, Sigma-Aldrich) before transferring it to a spin column placed in a collection tube. The samples were centrifuged for 1 min at 10,000 rpm to bind RNA to the membrane of the spin column.
For the on-column DNase digestion, the samples in the columns were washed with 350 μl RW1 buffer and centrifuged at 10,000 rpm for 1 min. Then, 80 μl of the DNase mixture (10 μl DNase enzyme with 70 μl RDD buffer; CAT # 79254, Qiagen) was added above each sample. Samples were incubated at room temperature for 15 min before adding 350 μl RW1 buffer. Samples were centrifuged at 10,000 rpm for 1 min.
Afterwards, 500 μl of RPE buffer (mixed with 100% ethanol at 1:4 ratio) was added above the samples. Samples were centrifuged for 1 min at 10,000 rpm (the step was repeated 2 times). The spin columns were centrifuged again at 13,000 rpm for 1 min to dry the membranes. The spin columns were removed from the collection tubes and placed inside another 1.5 ml RNase free collection tubes. The RNA was eluted by adding 30 μl of RNase free water directly to the spin column membrane. The samples were incubated 5 min at room temperature before spinning them for 1 min at 10,000 rpm.
RNA concentration was measured using a NanoDrop™ 2000c spectrophotometer (Thermo Fisher Scientific). The instrument was calibrated using the RNase free water used to elute the RNA as a blank and 2 μl was used of each RNA sample. RNA samples were stored in a −70° C. freezer to minimize RNA degradation.
qPCR reactions were performed using PerfeCTa SYBR Green SuperMix (CAT # 733-1246, VWR). 10 μl of reaction mix was added to each well of a 384-well plate (CAT # 04729749001, Roche) in triplicate. Each reaction contained 2 μl of 4 times diluted cDNA template, 5 μl 2×SYBR green mix and 250 nM primers.
Primers were designed using Primer-BLAST with melting temperatures of about 60° C. Before using them in qPCR, the primers were checked for specificity by PCR and the PCR products were sent for sequencing.
Standard curves (made using 5-fold dilutions of the stock cDNA) and blank controls were run for all sets of primers tested in qPCR. The plates were then sealed and centrifuged briefly to ensure all the reagents were at the base of the wells. The plates were run on a Roche LightCycler 480 that was programmed to hold the plate at 95° C. for 5 min. The qPCR then ran for 45 cycles of 95° C. for 15 seconds (s), 60° C. for 15 s and 72° C. for 15 s. Afterwards, the melting curve was obtained by running the plate at 95° C. for 5 s followed by 58° C. for 1 min.
Results were analysed using the delta delta CT method within the LightCycler 480 1.5 software. The expression of genes of interest was normalized to the appropriate reference gene according to each experiment.

MDR1 = assay: MDCK-MDR1 permeability assay; assay type: in vitro ADME; conditions: dog, pH 7.4, 60 min
Procedure: Thus, this assay is a valuable in vitro surrogate for blood-brain permeability and CNS exposure
MDCK-MDR1 cells obtained from the NIH (Rockville, MD, USA) are used between passage numbers 6-30. Cells are seeded onto Millipore Multiscreen Transwell plates at 3.4×10^5 cells/cm^2. The cells are cultured in DMEM and media is changed on day 3. On day 4 the permeability study is performed. Cell culture and assay incubations are carried out at 37° C. in an atmosphere of 5% CO2 with a relative humidity of 95%. On the day of the assay, the monolayers are prepared by rinsing both apical and basolateral surfaces twice with Hanks Balanced Salt Solution (HBSS) at the desired pH warmed to 37° C. […] Test compound permeability is assessed in duplicate. […] Test and control compounds are quantified by LC-MS/MS cassette analysis using a 7-point calibration with appropriate dilution of the samples. The starting concentration (C0) is determined from the dosing solution and the experimental recovery calculated from C0 and both apical and basolateral compartment concentrations.
The permeability coefficient (Papp) for each compound is calculated from the following equation: […]
Where dQ/dt is the rate of permeation of the drug across the cells, C0 is the donor compartment concentration at time zero and A is the area of the cell monolayer. […] An efflux ratio (ER) is calculated from mean A-B and B-A data.

Structure (SMILES)	Expression of inflammation genes (Ccl5, TNFα and Nos2) [1]	Expression of neuroprotection genes (Abca1, Abcg1, Igf1 and Igf2) [1]	Expression of non-amyloidogenic pathway genes (Nep, Ide and Adam10) [1]	Papp at 60 min, 10 μM (MDR1)	efflux ratio at 60 min, 10 μM (MDR1; from mean A-B and B-A data, read-out: ER (efflux ratio))
CC1(C)CCC(C)(C)c2cc(C#Cc3ccc(C(=O)O)cc3F)ccc21 [DC526, 3-Fluoro-4-[2-(5,5,8,8-tetramethyl-5,6,7,8-tetrahydronaphthalen-2-yl)ethynyl]benzoic acid]	downregulated	upregulated	upregulated	–	–
CC1(C)CCC(C)(C)c2cc(C#Cc3ccc(C(=O)O)nc3)ccc21 [DC528, 5-[2-(5,5,8,8-tetramethyl-5,6,7,8-tetrahydronaphthalen-2-yl)ethynyl]pyridine-2-carboxylic acid]	downregulated	upregulated	upregulated	–	–
CC1(C)CCC(C)(C)c2nc(C#Cc3ccc(C(=O)O)cc3)cnc21 [DC645, 4-[2-(5,5,8,8-Tetramethyl-5,6,7,8-tetrahydroquinoxalin-2-yl)ethynyl]benzoic acid]	downregulated	upregulated	upregulated	349 nm/s	0.6
